# Data published in patent publication US20230212549A1, “COMPOUNDS COMPRISING A […] LIGAND AND USE THEREOF” (priority 2021, published 2023).
# pIC50: −log10 of the molar value. Numbered stars: 1 amine (or outer) side, 2 acyl side, 3 side chain; on linkers, the order of the positions; unused ones are H or OH. Bridge positions count the residues as written; N and C are the ends. Square brackets hold non-standard residues; d marks the D form. Peptide text beside a SMILES is read from it. * marks the point of attachment. TBMB(SCH2CH2NH-DOTA) = O=C(O)CN1CCN(CC(=O)O)CCN(CC(=O)NCCSCc2cc(C[*:1])cc(C[*:2])c2)CCN(CC(=O)O)CC1; X13 = O=C(O)CN1CCN(CC(=O)O)CCN(CC(=O)N2CCN(Cc3cc(C[*:1])cc(C[*:2])c3)CC2)CCN(CC(=O)O)CC1; DOTA = O=C(O)CN1CCN(CC(=O)O)CCN(CC(=O)*)CCN(CC(=O)O)CC1; Pro(4S-NH2) = N[C@@H]1CN[C@H](C(=O)O)C1; mXylylene = c1cc(C[*:1])cc(C[*:2])c1; Pentanesulfonyl = CCCCCS(=O)(=O)*; NMeF = CN[C@@H](Cc1ccccc1)C(=O)O; NMeE = CN[C@@H](CCC(=O)O)C(=O)O; Nphe = O=C(O)CNCc1ccccc1; Orn = NCCC[C@H](N)C(=O)O; Hexanoyl = CCCCCC(=O)*; AEEA = NCCOCCOCC(=O)O; Aib = CC(C)(N)C(=O)O; βAla = NCCC(=O)O
# Assays:
# [1] = molecular target: T1, FAP-expressing human WI-38 fibroblasts (Homo sapiens, UniProt Q12884); test: Competitive FACS binding assay
# T1 construct: FAP-expressing human WI-38 fibroblasts (ECACC) were cultured in EMEM; host or cells: WI-38 human fibroblasts
# Procedure: Cells were analyzed in an Attune NxT flow cytometer. […] […].
# Cells were analyzed in an Attune NxT flow cytometer. […]
# Human recombinant FAP = Human recombinant FAP (Homo sapiens, UniProt Q12884); test: FRET-based FAP protease activity assay; format: biochemical; design: purchased R&D systems 3715-SE; settings: pIC50 Category (Activity), 37° C.
# [2] = FRET-based FAP protease activity assay, recombinant human FAP
# Chain of Human recombinant FAP (Q12884 whole entry): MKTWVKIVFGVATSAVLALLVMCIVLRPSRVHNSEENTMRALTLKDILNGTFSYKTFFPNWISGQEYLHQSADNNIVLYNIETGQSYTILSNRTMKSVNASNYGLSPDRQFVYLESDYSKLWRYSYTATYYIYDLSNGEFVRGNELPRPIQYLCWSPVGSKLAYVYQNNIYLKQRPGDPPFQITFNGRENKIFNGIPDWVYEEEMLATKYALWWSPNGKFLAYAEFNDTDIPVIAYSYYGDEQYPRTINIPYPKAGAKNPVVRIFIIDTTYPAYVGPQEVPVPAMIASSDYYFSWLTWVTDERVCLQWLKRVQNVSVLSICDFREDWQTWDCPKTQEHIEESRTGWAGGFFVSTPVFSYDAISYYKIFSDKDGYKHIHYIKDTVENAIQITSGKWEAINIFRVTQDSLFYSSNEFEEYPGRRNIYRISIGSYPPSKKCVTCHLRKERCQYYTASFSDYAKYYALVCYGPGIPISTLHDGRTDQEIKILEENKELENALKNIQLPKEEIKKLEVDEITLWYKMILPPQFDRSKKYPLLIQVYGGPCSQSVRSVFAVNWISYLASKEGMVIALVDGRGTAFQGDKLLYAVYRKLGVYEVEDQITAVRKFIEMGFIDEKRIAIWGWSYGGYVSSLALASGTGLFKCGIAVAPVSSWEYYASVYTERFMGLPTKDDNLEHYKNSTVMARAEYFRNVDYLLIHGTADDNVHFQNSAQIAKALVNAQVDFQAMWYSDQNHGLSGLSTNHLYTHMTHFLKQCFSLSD
# T1 sequence (Q12884 whole entry): as above
pIC50 [1],pIC50 (Human recombinant FAP; FRET-peptide substrate),pIC50 (Human recombinant FAP; [2]),Compound
7.10 to 8.00,7.10 to 8.00,,"C[C@@H](O)[C@@H]1NC(=O)[C@@H]2CCCN2C(=O)[C@@H]2CCCN2C(=O)[C@@H](NC(=O)NC2CCCC2)CSCc2cc(CSCCNC(=O)CN3CCN(CC(=O)O)CCN(CC(=O)O)CCN(CC(=O)O)CC3)cc(c2)CSC[C@@H](C(=O)O)NC(=O)[C@H](Cc2ccccc2)NC(=O)[C@H](CCC(N)=O)NC1=O [3BP-3917, Cpentyl-CAyl-[Cys(tMeBn(DOTA-AET))-Pro-Pro-Thr-Gln-Phe-Cys]-OH]"
< 6.00,,< 6.00,"CCCCCC(=O)N[C@H]1CSCc2cccc(c2)CSC[C@@H](C(N)=O)NC(=O)[C@H](Cc2ccccc2)NC(=O)[C@H](CCC(=O)O)N(C)C(=O)[C@H]([C@@H](C)O)NC(=O)[C@@H]2CCCN2C(=O)[C@@H]2CCCN2C1=O [3BP-3357, Hex-[Cys(3MeBn)-Pro-Pro-Thr-Nme-Phe-Cys]-NH2] (Hexanoyl-CPPT[NMeE]FC-NH2; linker 1-7 via mXylylene)"
< 6.00,,6.10 to 7.00,"CCCCCC(=O)N[C@H]1CSCc2cccc(c2)CSC[C@@H](C(N)=O)NC(=O)[C@H](Cc2ccccc2)NC(=O)[C@H](CCC(=O)O)NC(=O)[C@H]([C@@H](C)O)NC(=O)[C@@H]2C[C@H](N)CN2C(=O)[C@@H]2CCCN2C1=O [3BP-3367, Hex-[Cys(3MeBn)-Pro-Tap-Thr-Glu-Phe-Cys]-NH2] (Hexanoyl-CP[Pro(4S-NH2)]TEFC-NH2; linker 1-7 via mXylylene)"
7.10 to 8.00,7.10 to 8.00,,"C#CCCCC(=O)N[C@H]1CSCc2cc(CSCCNC(=O)CN3CCN(CC(=O)O)CCN(CC(=O)O)CCN(CC(=O)O)CC3)cc(c2)CSC[C@@H](C(=O)O)NC(=O)[C@H](Cc2ccccc2)NC(=O)[C@H](CCC(N)=O)NC(=O)[C@H]([C@@H](C)O)NC(=O)[C@@H]2CCCN2C(=O)[C@@H]2CCCN2C1=O [3BP-3913, Hyn-[Cys(tMeBn(DOTA-AET))-Pro-Pro-Thr-Gln-Phe-Cys]-OH]"
7.10 to 8.00,,> 8.00,"CCCCCC(=O)N[C@H]1CSCc2cccc(c2)CSC[C@@H](C(N)=O)NC(=O)[C@H](Cc2ccccc2C(F)(F)F)NC(=O)[C@H](CCC(N)=O)NC(=O)[C@H]([C@@H](C)O)NC(=O)[C@@H]2CCCN2C(=O)[C@@H]2CCCN2C1=O [3BP-3409, Hex-[Cys(3MeBn)-Pro-Pro-Thr-Gln-Otf-Cys]-NH2]"
> 8.00,,7.10 to 8.00,"CCCCCS(=O)(=O)N[C@H]1CSCc2cc(CSCCNC(=O)CN3CCN(CC(=O)O)CCN(CC(=O)O)CCN(CC(=O)O)CC3)cc(c2)CSC[C@@H](C(=O)O)NC(=O)[C@H](Cc2ccccc2)NC(=O)[C@H](CCC(=O)O)NC(=O)[C@H]([C@@H](C)O)NC(=O)[C@@H]2CCCN2C(=O)[C@@H]2CCCN2C1=O [3BP-3691, Pentyl-SO2-[Cys(tMeBn(DOTA-AET))-Pro-Pro-Thr-Glu-Phe-Cys]-OH] (Pentanesulfonyl-CPPTEFC-OH; linker 1-7 via TBMB(SCH2CH2NH-DOTA))"
7.10 to 8.00,7.10 to 8.00,,"CCCC[C@H](NC(=O)CCC(=O)NCCCOCCOCCOCCCNC(=O)CN1CCN(CC(=O)O)CCN(CC(=O)O)CCN(CC(=O)O)CC1)C(=O)N[C@H]1CSCc2cc(CSCCNC(=O)CN3CCN(CC(=O)O)CCN(CC(=O)O)CCN(CC(=O)O)CC3)cc(c2)CSC[C@@H](C(=O)N[C@@H](CC(=O)O)C(=O)NCCCOCCOCCOCCCNC(=O)CCC(=O)N[C@@H](CCCCNC(=O)CN2CCN(CC(=O)O)CCN(CC(=O)O)CCN(CC(=O)O)CC2)C(N)=O)NC(=O)[C@H](Cc2ccccc2)NC(=O)[C@H](CCC(N)=O)NC(=O)[C@H]([C@@H](C)O)NC(=O)[C@@H]2CCCN2C(=O)[C@@H]2CCCN2C1=O [3BP-4392, DOTA-Ttds-Nle-[Cys(tMeBn(DOTA-AET))-Pro-Pro-Thr-Gln-Phe-Cys]-Asp-Ttds-Lys(DOTA)-NH2]"
< 6.00,,< 6.00,"CCCCCC(=O)N[C@H]1CSCc2cccc(c2)CSC[C@@H](C(N)=O)NC(=O)CN(Cc2ccccc2)C(=O)[C@H](CCC(=O)O)NC(=O)[C@H]([C@@H](C)O)NC(=O)[C@@H]2CCCN2C(=O)[C@@H]2CCCN2C1=O [3BP-3360, Hex-[Cys(3MeBn)-Pro-Pro-Thr-Glu-Nphe-Cys]-NH2] (Hexanoyl-CPPTE[Nphe]C-NH2; linker 1-7 via mXylylene)"
6.10 to 7.00,,6.10 to 7.00,"C[C@@H](O)[C@@H]1NC(=O)[C@@H]2CCCN2C(=O)[C@@H]2CCCN2C(=O)[C@@H](NC(=O)COCCOCCNC(=O)CN2CCN(CC(=O)O)CCN(CC(=O)O)CCN(CC(=O)O)CC2)CSCc2cccc(c2)CSC[C@@H](C(=O)N[C@@H](CC(=O)O)C(=O)N[C@@H](Cc2c[nH]cn2)C(=O)N(C)[C@@H](Cc2ccccc2)C(=O)N[C@@H](CCCNC(=N)N)C(=O)N[C@@H](CC(=O)O)C(N)=O)NC(=O)[C@H](Cc2ccccc2)NC(=O)[C@H](CCC(=O)O)NC1=O [3BP-3267, DOTA-O2Oc-[Cys(3MeBn)-Pro-Pro-Thr-Glu-Phe-Cys]-Asp-His-Nmf-Arg-Asp-NH2] ({DOTA-AEEA}-CPPTEFCDH[NMeF]RD-NH2; linker 1-7 via mXylylene)"
7.10 to 8.00,,7.10 to 8.00,"C[C@@H](O)[C@@H]1NC(=O)[C@@H]2CCCN2C(=O)[C@@H]2CCCN2C(=O)[C@@H](NC(=O)CCNC(=O)CN2CCN(CC(=O)O)CCN(CC(=O)O)CCN(CC(=O)O)CC2)CSCc2cccc(c2)CSC[C@@H](C(=O)N[C@@H](CC(=O)O)C(=O)N[C@@H](Cc2c[nH]cn2)C(=O)N(C)[C@@H](Cc2ccccc2)C(=O)N[C@@H](CCCNC(=N)N)C(=O)N[C@@H](CC(=O)O)C(N)=O)NC(=O)[C@H](Cc2ccccc2)NC(=O)[C@H](CCC(=O)O)NC1=O [3BP-3264, DOTA-Bal-[Cys(3MeBn)-Pro-Pro-Thr-Glu-Phe-Cys]-Asp-His-Nmf-Arg-Asp-NH2] ({DOTA-βAla}-CPPTEFCDH[NMeF]RD-NH2; linker 1-7 via mXylylene)"
> 8.00,> 8.00,,"CCCC[C@H](NC(=O)CCC(=O)NCCCOCCOCCOCCCNC(=O)CN1CCN(CC(=O)O)CCN(CC(=O)O)CCN(CC(=O)O)CC1)C(=O)N[C@H]1CSCc2cccc(c2)CSC[C@@H](C(=O)N[C@@H](CC(=O)O)C(=O)NCCCOCCOCCOCCCNC(=O)CCC(=O)N[C@@H](CCCCNC(=O)CN2CCN(CC(=O)O)CCN(CC(=O)O)CCN(CC(=O)O)CC2)C(N)=O)NC(=O)[C@H](Cc2ccccc2)NC(=O)[C@H](CCC(N)=O)NC(=O)[C@H]([C@@H](C)O)NC(=O)[C@@H]2CCCN2C(=O)[C@@H]2CCCN2C1=O [3BP-4393, DOTA-Ttds-Nle-[Cys(3MeBn)-Pro-Pro-Thr-Gln-Phe-Cys]-Asp-Ttds-Lys(DOTA)-NH2]"
7.10 to 8.00,,7.10 to 8.00,"CSCC[C@H](NC(C)=O)C(=O)N[C@H]1CSCc2cccc(c2)CSC[C@@H](C(=O)N[C@@H](CC(=O)O)C(=O)N[C@@H](Cc2c[nH]cn2)C(=O)N[C@@H](Cc2ccccc2)C(=O)N[C@@H](CCCNC(=N)N)C(=O)N[C@@H](CC(=O)O)C(N)=O)NC(=O)[C@H](Cc2ccccc2)NC(=O)[C@H](CCC(=O)O)NC(=O)[C@H]([C@@H](C)O)NC(=O)[C@@H]2CCCN2C(=O)C(C)(C)NC1=O [3BP-3204, Ac-Met-[Cys(3MeBn)-Aib-Pro-Thr-Glu-Phe-Cys]-Asp-His-Phe-Arg-Asp-NH2] (Ac-MC[Aib]PTEFCDHFRD-NH2; linker 2-8 via mXylylene)"
7.10 to 8.00,7.10 to 8.00,,"C[C@@H](O)[C@@H]1NC(=O)[C@@H]2CCCN2C(=O)[C@@H]2CCCN2C(=O)[C@@H](NC(=O)[C@@H]2CCCO2)CSCc2cc(CSCCNC(=O)CN3CCN(CC(=O)O)CCN(CC(=O)O)CCN(CC(=O)O)CC3)cc(c2)CSC[C@@H](C(=O)O)NC(=O)[C@H](Cc2ccccc2)NC(=O)[C@H](CCC(N)=O)NC1=O [3BP-3936, Sth-[Cys(tMeBn(DOTA-AET))-Pro-Pro-Thr-Gln-Phe-Cys]-OH]"
< 6.00,,6.10 to 7.00,"CCCCCC(=O)N[C@H]1CSCc2cccc(c2)CSC[C@@H](C(N)=O)NC(=O)[C@H](Cc2ccccc2)NC(=O)[C@H](CCC(=O)O)NC(=O)[C@H](CCCNC(C)=O)NC(=O)[C@@H]2CCCN2C(=O)[C@@H]2CCCN2C1=O [3BP-3372, Hex-[Cys(3MeBn)-Pro-Pro-Orn(Ac)-Glu-Phe-Cys]-NH2] (Hexanoyl-CPP[Orn](Ac)EFC-NH2; linker 1-7 via mXylylene)"

Compound,pIC50 [1],pIC50 (Human recombinant FAP; FRET-peptide substrate),pIC50 (Human recombinant FAP; [2])
"CCCCCC(=O)N[C@H]1CSCc2cc(cc(CN3CCN(C(=O)CN4CCN(CC(=O)O)CCN(CC(=O)O)CCN(CC(=O)O)CC4)CC3)c2)CSC[C@@H](C(=O)N[C@@H](CC(=O)O)C(N)=O)NC(=O)[C@H](Cc2ccccc2)NC(=O)[C@H](CCC(N)=O)NC(=O)[C@H](C)NC(=O)[C@@H]2CCCN2C(=O)[C@@H]2CCCN2C1=O [3BP-3745, Hex-[Cys(tMeBn(DOTA-PP))-Pro-Pro-Ala-Gln-Phe-Cys]-Asp-NH2] (Hexanoyl-CPPAQFCD-NH2; linker 1-7 via X13)",6.10 to 7.00,,6.10 to 7.00
"CCCCCC(=O)N[C@H]1CSCc2cc(cc(CN3CCN(C(=O)CN4CCN(CC(=O)O)CCN(CC(=O)O)CCN(CC(=O)O)CC4)CC3)c2)CSC[C@@H](C(=O)N[C@@H](CC(=O)O)C(N)=O)NC(=O)[C@@H]2CCCN2C(=O)[C@H](Cc2ccccc2)NC(=O)[C@@H]2CCCN2C(=O)[C@H](CCC(N)=O)NC(=O)[C@H]([C@@H](C)O)NC1=O [3BP-3856, Hex-[Cys(tMeBn(DOTA-PP))-Thr-Gln-Pro-Phe-Pro-Cys]-Asp-NH2] (Hexanoyl-CTQPFPCD-NH2; linker 1-7 via X13)",< 6.00,,< 6.00
"CCCCCC(=O)N[C@H]1CSCc2cc(CSCCNC(=O)CCCC(=O)Nc3ccc(C[C@@H](CN(CCN(CC(=O)O)CC(=O)O)CC(=O)O)N(CC(=O)O)CC(=O)O)cc3)cc(c2)CSC[C@@H](C(=O)O)NC(=O)[C@H](Cc2ccccc2)NC(=O)[C@H](CCC(N)=O)NC(=O)[C@H]([C@@H](C)O)NC(=O)[C@@H]2CCCN2C(=O)[C@@H]2CCCN2C1=O [3BP-4366, Hex-[Cys-(tMeBn(DTPABzl-Glutar-AET))-Pro-Pro-Thr-Gln-Phe-Cys]-OH]",6.10 to 7.00,6.10 to 7.00,
